Assay results taken from patent US12428422B2, “Purine derivatives as SIK-3 inhibitors” (RHIZEN PHARMACEUTICALS AG, priority 2020, dated 2025).

Experiments:
SK-OV-3 cell lines = experiment: MTT cell growth inhibition, combination with talzoparib, SK-OV-3; type: cell-based; conditions: combined with talzoparib, 72 hrs
Method: (§1) Assay 5: Combination of Compound M1 with Standard Agents in Different Cell Lines
(§2) Day 0 • The cells were pelleted and counted. • Cells were plated at desired density (100 μl/well) in complete media in a 96-well plate in triplicates. A column for Day “0” reading was also seeded. (18-20 hrs after initial plating and before addition of the inhibitors) • Plates were incubated at 37° C. and 5% CO2. Day 1 • 10 μl of MTT (5 mg/ml) were added to the column designated for Day “0”. It was mixed well and incubated at 37° C. and 5% CO2 for 3.5 h. Cells were pelleted down at 4000 rpm for 10 minutes. • Media was aspirated out and 150 μl of DMSO were added to the cells and mixed by pipetting to dissolve the crystals • The plate was read at A560 nm and A640 nm. Day 2 • A series of dilutions of the inhibitors were initially made in 100% DMSO and further diluted in growth medium. • Cells were treated with either single agent of DMSO, compound M1, talzoparib, and combination of compound M1 and talzoparib (OVCAr-3 and SK-OV-3). […]
(§3) The plate was read at A560 nm and A640 nm.
(§4) Reference absorbance values were subtracted from test absorbance values. Day 0 values were subtracted from final day absorbance values for determining cell growth. % Cell growth inhibitions were calculated.

6 isoform of PI3K = 6 isoform of PI3K (Homo sapiens, UniProt O00329); experiment: Activity against PI3K delta isoform (printed "6"); conditions: independently synthesized compound
y isoform of PI3K = y isoform of PI3K (Homo sapiens, UniProt P48736); experiment: Activity against PI3K gamma isoform (printed "y" / "7"); conditions: independently synthesized compound
OVCAr-3 cell lines = experiment: MTT cell growth inhibition, combination with talzoparib, OVCAR-3; type: cell-based; conditions: combined with talzoparib, 72 hrs
Method: as §1, §2, §3, §4

6 isoform of PI3K, sequence (O00329 whole entry, canonical isoform): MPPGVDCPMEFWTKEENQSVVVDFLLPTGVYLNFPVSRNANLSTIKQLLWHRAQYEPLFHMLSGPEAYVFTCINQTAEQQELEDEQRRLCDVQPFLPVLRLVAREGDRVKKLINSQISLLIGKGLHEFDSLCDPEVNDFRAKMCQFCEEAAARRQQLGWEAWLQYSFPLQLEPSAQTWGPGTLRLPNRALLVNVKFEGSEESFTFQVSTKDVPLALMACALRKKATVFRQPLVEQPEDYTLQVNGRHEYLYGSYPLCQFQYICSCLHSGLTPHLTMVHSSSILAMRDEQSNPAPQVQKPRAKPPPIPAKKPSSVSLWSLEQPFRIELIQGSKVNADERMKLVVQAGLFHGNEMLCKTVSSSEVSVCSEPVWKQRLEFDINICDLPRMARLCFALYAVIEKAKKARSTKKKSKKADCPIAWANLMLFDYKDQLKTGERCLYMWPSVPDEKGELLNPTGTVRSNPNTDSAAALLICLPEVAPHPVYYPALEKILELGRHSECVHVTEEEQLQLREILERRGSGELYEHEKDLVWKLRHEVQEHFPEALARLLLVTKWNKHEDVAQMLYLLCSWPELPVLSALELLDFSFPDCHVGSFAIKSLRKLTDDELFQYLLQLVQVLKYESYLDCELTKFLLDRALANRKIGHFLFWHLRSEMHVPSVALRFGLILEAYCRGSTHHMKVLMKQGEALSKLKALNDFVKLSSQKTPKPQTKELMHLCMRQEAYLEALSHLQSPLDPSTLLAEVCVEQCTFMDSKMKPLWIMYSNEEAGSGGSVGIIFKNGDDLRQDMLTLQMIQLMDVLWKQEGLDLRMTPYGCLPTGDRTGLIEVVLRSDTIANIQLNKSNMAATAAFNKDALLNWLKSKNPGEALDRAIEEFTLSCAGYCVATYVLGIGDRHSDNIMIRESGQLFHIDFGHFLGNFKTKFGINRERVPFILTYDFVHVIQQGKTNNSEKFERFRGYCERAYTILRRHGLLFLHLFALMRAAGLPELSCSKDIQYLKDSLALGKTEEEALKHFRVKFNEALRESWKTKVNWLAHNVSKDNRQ
6 isoform of PI3K, sequence (P27986 whole entry partner, canonical isoform): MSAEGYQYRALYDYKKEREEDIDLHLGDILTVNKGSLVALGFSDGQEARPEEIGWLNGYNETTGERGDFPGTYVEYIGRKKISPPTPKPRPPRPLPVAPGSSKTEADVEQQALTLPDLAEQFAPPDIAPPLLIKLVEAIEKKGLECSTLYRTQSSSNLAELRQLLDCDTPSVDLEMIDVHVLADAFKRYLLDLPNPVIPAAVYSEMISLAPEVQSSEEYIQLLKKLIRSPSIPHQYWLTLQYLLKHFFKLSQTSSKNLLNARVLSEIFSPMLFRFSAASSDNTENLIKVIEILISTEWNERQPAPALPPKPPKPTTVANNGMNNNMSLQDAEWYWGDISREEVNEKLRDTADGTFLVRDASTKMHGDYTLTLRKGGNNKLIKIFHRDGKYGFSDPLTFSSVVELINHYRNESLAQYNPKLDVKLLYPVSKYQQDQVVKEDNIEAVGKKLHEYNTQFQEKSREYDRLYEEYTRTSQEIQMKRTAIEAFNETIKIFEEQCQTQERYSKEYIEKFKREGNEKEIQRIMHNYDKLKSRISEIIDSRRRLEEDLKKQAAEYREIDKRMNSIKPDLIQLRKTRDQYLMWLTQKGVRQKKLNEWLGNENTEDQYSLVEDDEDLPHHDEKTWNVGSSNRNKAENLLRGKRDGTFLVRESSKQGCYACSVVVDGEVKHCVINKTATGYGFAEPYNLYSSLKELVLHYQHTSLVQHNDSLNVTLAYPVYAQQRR
y isoform of PI3K, sequence (P48736 whole entry, canonical isoform): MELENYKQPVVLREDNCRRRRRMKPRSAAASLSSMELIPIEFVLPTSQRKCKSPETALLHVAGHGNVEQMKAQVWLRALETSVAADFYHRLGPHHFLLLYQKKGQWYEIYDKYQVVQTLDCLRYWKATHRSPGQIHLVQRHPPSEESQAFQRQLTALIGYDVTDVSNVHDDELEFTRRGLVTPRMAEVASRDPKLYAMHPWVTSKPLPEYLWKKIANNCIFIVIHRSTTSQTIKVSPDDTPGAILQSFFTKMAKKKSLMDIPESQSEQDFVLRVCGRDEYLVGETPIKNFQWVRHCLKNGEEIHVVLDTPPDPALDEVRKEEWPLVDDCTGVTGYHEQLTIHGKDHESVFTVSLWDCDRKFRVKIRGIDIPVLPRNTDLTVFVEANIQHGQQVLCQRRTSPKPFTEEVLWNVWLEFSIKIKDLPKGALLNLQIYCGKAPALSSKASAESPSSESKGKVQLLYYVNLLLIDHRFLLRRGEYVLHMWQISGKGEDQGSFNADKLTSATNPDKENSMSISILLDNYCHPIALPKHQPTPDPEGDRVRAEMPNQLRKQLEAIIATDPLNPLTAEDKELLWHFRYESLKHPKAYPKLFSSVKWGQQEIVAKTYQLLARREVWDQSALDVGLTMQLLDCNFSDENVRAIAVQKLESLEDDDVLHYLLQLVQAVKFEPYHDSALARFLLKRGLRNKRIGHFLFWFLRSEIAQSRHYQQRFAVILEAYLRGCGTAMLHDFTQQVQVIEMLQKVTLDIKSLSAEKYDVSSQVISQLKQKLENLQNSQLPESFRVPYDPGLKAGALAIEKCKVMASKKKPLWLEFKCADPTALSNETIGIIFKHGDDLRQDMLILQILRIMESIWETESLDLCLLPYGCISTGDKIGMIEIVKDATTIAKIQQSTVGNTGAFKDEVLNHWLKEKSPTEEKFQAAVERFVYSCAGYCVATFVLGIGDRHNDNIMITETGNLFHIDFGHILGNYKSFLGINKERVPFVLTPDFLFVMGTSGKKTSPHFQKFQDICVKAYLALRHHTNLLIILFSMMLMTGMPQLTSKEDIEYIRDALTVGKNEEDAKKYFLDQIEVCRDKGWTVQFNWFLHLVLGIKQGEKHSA

activity against the 6 isoform of PI3K (6 isoform of PI3K): inactive
activity against the y isoform of PI3K (y isoform of PI3K): inactive
SMILES: CC[C@H](Nc1ncnc2[nH]c(O)nc12)c1oc2ccccc2c(=O)c1-c1cccc(F)c1 [Compound M1, (S)-3-(3-fluorophenyl)-2-(1-((8-hydroxy-9H-purin-6-yl)amino)propyl)-4H-chromen-4-one]
cell growth inhibition in combination (SK-OV-3 cell lines): synergistic results
cell growth inhibition in combination (OVCAr-3 cell lines): synergistic results
